Test results: PubChem BioAssay (NCI)
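Step 1: Grow cells in 96-well plates. Step 2: Expose to compound for 48 hours at 5 concentrations. Step 3: Interpolate endpoints linearly; if unreached, use highest concentration. TGI is the concentration that stops growth completely.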

Key:
Assay in all cases: growth of human tumour cells (NCI), 48 h
UACC-62 melanoma = system: UACC-62 melanoma
KM20L2 colon = system: KM20L2 colon
TK-10 renal = system: TK-10 renal
LOX IMVI melanoma = system: LOX IMVI melanoma
SK-MEL-2 melanoma = system: SK-MEL-2 melanoma
XF 498 CNS = system: XF 498 CNS
HOP-92 NSCLC = system: HOP-92 NSCLC
RPMI-8226 leukemia = system: RPMI-8226 leukemia
OVCAR-4 ovarian = system: OVCAR-4 ovarian
MALME-3M melanoma = system: MALME-3M melanoma
M14 melanoma = system: M14 melanoma
UO-31 renal = system: UO-31 renal
NCI-H23 lung = system: NCI-H23 lung
DLD-1 colon = system: DLD-1 colon
SF-539 CNS = system: SF-539 CNS
HOP-62 NSCLC = system: HOP-62 NSCLC
OVCAR-8 ovarian = system: OVCAR-8 ovarian
A549 NSCLC = system: A549 NSCLC
KM12 colon = system: KM12 colon
OVCAR-5 ovarian = system: OVCAR-5 ovarian

Nc1nc(Cl)cc(NCCCCCCCCCCCCNc2cc(Cl)nc(N)n2)n1
TGI (UACC-62 melanoma): > 100 µM | TGI (KM20L2 colon): > 100 µM | TGI (TK-10 renal): > 100 µM | TGI (LOX IMVI melanoma): 14.5 µM | TGI (SK-MEL-2 melanoma): > 100 µM | TGI (XF 498 CNS): 26.4 µM | TGI (HOP-92 NSCLC): 19.3 µM | TGI (RPMI-8226 leukemia): > 100 µM | TGI (OVCAR-4 ovarian): 75.2 µM | TGI (MALME-3M melanoma): > 100 µM | TGI (M14 melanoma): > 100 µM | TGI (UO-31 renal): > 100 µM | TGI (NCI-H23 lung): 12.6 µM | TGI (DLD-1 colon): > 100 µM | TGI (SF-539 CNS): 72.5 µM | TGI (HOP-62 NSCLC): 35.2 µM | TGI (OVCAR-8 ovarian): 44 µM | TGI (A549 NSCLC): > 100 µM | TGI (KM12 colon): > 100 µM

CC(=O)c1cccc(NC(=O)C(=O)C(C(=O)c2ccccc2F)C2OC(=O)c3ccccc32)c1 (stereo unspecified)
TGI (UACC-62 melanoma): > 100 µM | TGI (KM20L2 colon): > 100 µM | TGI (TK-10 renal): > 100 µM | TGI (LOX IMVI melanoma): 62.9 µM | TGI (SK-MEL-2 melanoma): 96.1 µM | TGI (XF 498 CNS): > 100 µM | TGI (HOP-92 NSCLC): > 100 µM | TGI (RPMI-8226 leukemia): 87.9 µM | TGI (OVCAR-4 ovarian): > 100 µM | TGI (M14 melanoma): > 100 µM | TGI (UO-31 renal): > 100 µM | TGI (NCI-H23 lung): > 100 µM | TGI (DLD-1 colon): > 100 µM | TGI (OVCAR-5 ovarian): > 100 µM | TGI (HOP-62 NSCLC): > 100 µM | TGI (OVCAR-8 ovarian): > 100 µM | TGI (A549 NSCLC): > 100 µM | TGI (KM12 colon): > 100 µM

O=C1CCc2cc3c(cc21)CC1(Cc2cc4c(cc2C1)CCCC4)C3
TGI (UACC-62 melanoma): > 100 µM | TGI (TK-10 renal): > 100 µM | TGI (LOX IMVI melanoma): > 100 µM | TGI (SK-MEL-2 melanoma): > 100 µM | TGI (HOP-92 NSCLC): 11.4 µM | TGI (RPMI-8226 leukemia): > 100 µM | TGI (OVCAR-4 ovarian): > 100 µM | TGI (MALME-3M melanoma): > 100 µM | TGI (M14 melanoma): > 100 µM | TGI (UO-31 renal): > 100 µM | TGI (NCI-H23 lung): > 100 µM | TGI (SF-539 CNS): > 100 µM | TGI (OVCAR-5 ovarian): > 100 µM | TGI (HOP-62 NSCLC): > 100 µM | TGI (OVCAR-8 ovarian): > 100 µM | TGI (A549 NSCLC): > 100 µM | TGI (KM12 colon): > 100 µM

ClCc1ccc2ccc3ccc(CCl)nc3c2n1
TGI (UACC-62 melanoma): 2.64 µM | TGI (KM20L2 colon): 12 µM | TGI (LOX IMVI melanoma): 2.9 µM | TGI (SK-MEL-2 melanoma): 4.81 µM | TGI (XF 498 CNS): 4.45 µM | TGI (HOP-92 NSCLC): 3.63 µM | TGI (RPMI-8226 leukemia): 13.1 µM | TGI (OVCAR-4 ovarian): 14.5 µM | TGI (MALME-3M melanoma): 3.69 µM | TGI (UO-31 renal): 3.21 µM | TGI (NCI-H23 lung): 7.88 µM | TGI (DLD-1 colon): 2.89 µM | TGI (SF-539 CNS): 5.85 µM | TGI (OVCAR-5 ovarian): 7.82 µM | TGI (HOP-62 NSCLC): 15.4 µM | TGI (A549 NSCLC): > 42.2 µM | TGI (KM12 colon): 2.32 µM
